Experimental findings from paper PMC10831120, “Nitric oxide synthase-guided genome mining identifies a cytochrome P450 enzyme for olefin nitration in bacterial specialized metabolism” (Synthetic and Systems Biotechnology, 2024) are described below.

This assay concerns the target T1, Laj2 (cytochrome P450).
T1 construct: His6-tagged Laj2 (405 aa), expressed in E. coli
Description: UV-vis difference spectral titration (type I binding spectra), one-site fit; nitration turnover also shown by LC-MS. Set-up: species or system Streptomyces qinglanensis.

For orientation: Kd means a measure of binding affinity in units of concentration. A higher Kd goes with weaker binding. For the compound `C/C=C(C)/C=C/C=C\C=C(\C)C(O)C(C)(C)C(=O)NC/C=C/C=C/C(O)C(C)CC(OC)C1(O)C(C)C(=O)N(C)C12COC2=O` (stereo not shown) [compound 4, denitrolajollamycin], the Kd is about 60 µM.
